For two compounds, inhibition results are on record in ChEMBL document CHEMBL1687697 (ACS Med Chem Lett, 2010).

The assay addresses Signal transducer and activator of transcription 3 (Homo sapiens) (UniProt P40763). In words: Inhibition of STAT3 in human HeLa cells after 24 hrs by luciferase reporter gene assay. Format: cell-based.

Structures are written as SMILES. Activity calls are given as the source filed them. The calls are words filed in the database; no cut-off is given here.

Sequence of Signal transducer and activator of transcription 3 (Homo sapiens) (P40763 whole entry): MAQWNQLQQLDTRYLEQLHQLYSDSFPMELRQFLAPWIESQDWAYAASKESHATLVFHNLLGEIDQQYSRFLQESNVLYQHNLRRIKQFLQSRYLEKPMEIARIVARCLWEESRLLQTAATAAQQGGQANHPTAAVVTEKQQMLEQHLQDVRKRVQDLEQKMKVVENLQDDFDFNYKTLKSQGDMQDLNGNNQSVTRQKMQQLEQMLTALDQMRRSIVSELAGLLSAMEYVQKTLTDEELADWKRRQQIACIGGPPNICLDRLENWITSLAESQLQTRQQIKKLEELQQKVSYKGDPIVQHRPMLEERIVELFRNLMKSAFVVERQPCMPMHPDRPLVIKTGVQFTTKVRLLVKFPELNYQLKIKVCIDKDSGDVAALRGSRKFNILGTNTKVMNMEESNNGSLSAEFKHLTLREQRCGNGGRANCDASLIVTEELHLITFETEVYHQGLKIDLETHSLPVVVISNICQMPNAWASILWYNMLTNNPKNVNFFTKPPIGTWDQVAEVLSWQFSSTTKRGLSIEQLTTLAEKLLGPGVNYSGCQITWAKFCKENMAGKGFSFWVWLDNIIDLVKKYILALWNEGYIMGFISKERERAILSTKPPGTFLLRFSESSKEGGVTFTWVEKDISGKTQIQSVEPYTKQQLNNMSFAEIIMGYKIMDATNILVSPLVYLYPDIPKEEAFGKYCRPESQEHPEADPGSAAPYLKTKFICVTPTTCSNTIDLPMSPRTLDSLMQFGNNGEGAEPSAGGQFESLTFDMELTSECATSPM

In the case of `COc1ccc(-c2cc(=O)c3c(O)cc(O[C@@H]4O[C@H](CO[C@@H]5O[C@@H](C)[C@H](O)[C@@H](O)[C@H]5O)[C@@H](O)[C@H](O)[C@H]4O)cc3o2)cc1O`, the inhibition entry is “inactive”. On to `COc1ccc(C(=O)N2CCCC2=O)cc1`, for which the inhibition result was “inactive”.
